Marks after values point to notes of the source that are not given here.
Legend:
hM5 = molecular target: T1, hM5 (Homo sapiens, UniProt P08912); assay: Calcium mobilization assay with hM5-CHO cells, EC80 acetylcholine; format: cell-based; conditions: for hM5 IC50: antagonist
T1 sequence (P08912 1-532): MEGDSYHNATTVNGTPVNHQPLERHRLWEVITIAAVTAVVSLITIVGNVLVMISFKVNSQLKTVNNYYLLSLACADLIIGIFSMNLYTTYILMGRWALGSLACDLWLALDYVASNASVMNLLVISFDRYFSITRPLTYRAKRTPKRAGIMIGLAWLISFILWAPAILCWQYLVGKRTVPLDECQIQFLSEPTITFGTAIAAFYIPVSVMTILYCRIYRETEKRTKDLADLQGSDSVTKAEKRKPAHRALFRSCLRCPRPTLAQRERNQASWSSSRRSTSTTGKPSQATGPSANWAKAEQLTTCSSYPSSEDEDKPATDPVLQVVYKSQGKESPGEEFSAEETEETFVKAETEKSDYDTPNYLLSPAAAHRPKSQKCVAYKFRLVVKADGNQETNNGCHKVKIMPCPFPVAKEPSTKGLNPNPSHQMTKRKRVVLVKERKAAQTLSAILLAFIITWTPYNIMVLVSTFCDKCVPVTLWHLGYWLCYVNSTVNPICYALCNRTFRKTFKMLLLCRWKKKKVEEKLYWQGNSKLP

In vitro clearance [1] = format: in vitro ADME, rat; conditions: for Predicted CLhep: rat (r)
In vitro clearance [2] = format: in vitro ADME, human; conditions: for Predicted CLhep: human (h)
hM4 = molecular target: T2, hM4 (Homo sapiens, UniProt P08173); assay: Subtype selectivity, hM4; format: cell-based
T2 sequence (P08173 1-479): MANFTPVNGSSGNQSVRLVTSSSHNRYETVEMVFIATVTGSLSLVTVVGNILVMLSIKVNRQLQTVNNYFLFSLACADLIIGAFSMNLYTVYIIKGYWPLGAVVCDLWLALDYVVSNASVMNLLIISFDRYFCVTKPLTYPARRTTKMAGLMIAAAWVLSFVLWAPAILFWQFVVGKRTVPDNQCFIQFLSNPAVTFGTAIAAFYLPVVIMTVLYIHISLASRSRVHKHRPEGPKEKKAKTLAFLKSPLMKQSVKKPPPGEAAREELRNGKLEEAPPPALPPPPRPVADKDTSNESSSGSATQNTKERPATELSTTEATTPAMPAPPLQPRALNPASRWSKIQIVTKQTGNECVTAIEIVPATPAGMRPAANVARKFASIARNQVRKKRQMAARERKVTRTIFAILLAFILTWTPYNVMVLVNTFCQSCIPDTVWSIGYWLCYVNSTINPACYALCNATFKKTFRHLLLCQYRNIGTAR

hM2 = molecular target: T3, hM2 (Homo sapiens, UniProt P08172); assay: Subtype selectivity, hM2; format: cell-based; conditions: printed as hM2-4
T3 sequence (P08172 1-466): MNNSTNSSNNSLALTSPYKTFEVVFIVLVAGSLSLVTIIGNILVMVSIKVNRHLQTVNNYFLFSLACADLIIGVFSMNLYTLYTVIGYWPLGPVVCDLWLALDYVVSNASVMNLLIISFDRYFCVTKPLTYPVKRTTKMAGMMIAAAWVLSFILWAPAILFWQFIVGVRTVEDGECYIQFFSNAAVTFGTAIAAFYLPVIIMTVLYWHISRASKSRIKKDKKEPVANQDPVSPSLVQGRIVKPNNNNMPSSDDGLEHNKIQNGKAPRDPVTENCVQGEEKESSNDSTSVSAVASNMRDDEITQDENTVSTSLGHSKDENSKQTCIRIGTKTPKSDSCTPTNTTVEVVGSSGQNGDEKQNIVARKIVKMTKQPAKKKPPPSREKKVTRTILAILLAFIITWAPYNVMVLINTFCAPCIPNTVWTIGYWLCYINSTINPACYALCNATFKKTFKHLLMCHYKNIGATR

hM3 = hM3 (Homo sapiens, UniProt P20309); assay: Subtype selectivity, hM3; format: cell-based; conditions: printed as hM2-4
Chain of hM3 (P20309 whole entry): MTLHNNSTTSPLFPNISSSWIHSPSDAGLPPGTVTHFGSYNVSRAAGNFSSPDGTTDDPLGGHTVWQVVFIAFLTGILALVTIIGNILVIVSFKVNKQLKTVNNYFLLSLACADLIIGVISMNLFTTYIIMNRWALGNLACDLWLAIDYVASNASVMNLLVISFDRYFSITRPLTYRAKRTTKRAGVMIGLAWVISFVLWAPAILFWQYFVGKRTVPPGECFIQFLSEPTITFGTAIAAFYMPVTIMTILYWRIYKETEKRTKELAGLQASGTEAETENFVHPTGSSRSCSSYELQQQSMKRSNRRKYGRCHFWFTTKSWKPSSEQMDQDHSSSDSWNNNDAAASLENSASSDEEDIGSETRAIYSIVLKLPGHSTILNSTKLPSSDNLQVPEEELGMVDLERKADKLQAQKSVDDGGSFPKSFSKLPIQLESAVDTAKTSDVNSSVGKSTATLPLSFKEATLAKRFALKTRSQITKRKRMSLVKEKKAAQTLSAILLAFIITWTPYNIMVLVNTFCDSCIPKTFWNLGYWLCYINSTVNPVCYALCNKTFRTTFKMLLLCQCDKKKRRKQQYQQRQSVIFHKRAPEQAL

Structure (SMILES) | hM5 ACh Min (hM5) | Predicted CLhep (In vitro clearance [1]) | Predicted CLhep (In vitro clearance [2]) | also measured
C[C@@H]1CN(S(=O)(=O)c2ccc3c(c2)CCO3)CC[C@@H]1C(=O)Nc1ccc2scnc2c1 (racemic) [(rac)-22] | 3^c % | 3.72 L/h/kg | 1.14 L/h/kg | 
C[C@H]1CN(S(=O)(=O)c2ccc3c(c2)CCO3)CC[C@@H]1C(=O)Nc1ccc2scnc2c1 (racemic) [(rac)-23] | 3^c % | 3.66 L/h/kg | 1.02 L/h/kg | 
C[C@@H]1C[C@H](C(=O)Nc2ccc3scnc3c2)CCN1S(=O)(=O)c1ccc2c(c1)CCO2 (racemic) [(rac)-24] | 2^c % | 3.72 L/h/kg | 1.14 L/h/kg | 
C[C@@H]1C[C@@H](C(=O)Nc2ccc3scnc3c2)CCN1S(=O)(=O)c1ccc2c(c1)CCO2 (racemic) [(rac)-25] |  | 3.72 L/h/kg | 1.08 L/h/kg | 
CC1COc2ccc(S(=O)(=O)N3CCC(C(=O)Nc4ccc5scnc5c4)CC3)cc21 (racemic) [(rac)-26] |  | 3.96 L/h/kg | 1.14 L/h/kg | 
Cc1nn(C)cc1S(=O)(=O)N1CC[C@H](C(=O)Nc2ccc3scnc3c2)[C@@H](F)C1 (racemic) [(rac)-30a] |  | 3.3 L/h/kg | 0.3 L/h/kg | 
Cn1ncc(S(=O)(=O)N2CC[C@H](C(=O)Nc3ccc4scnc4c3)[C@@H](F)C2)c1Cl (racemic) [(rac)-30b] |  | 1.74 L/h/kg | 0.24 L/h/kg | 
Cc1ncc(S(=O)(=O)N2CC[C@H](C(=O)Nc3ccc4scnc4c3)[C@@H](F)C2)s1 (racemic) [(rac)-30c] |  | 2.22 L/h/kg | 0.3 L/h/kg | 
O=C(Nc1ccc2scnc2c1)C1CCN(S(=O)(=O)c2ccc(Cl)s2)CC1 [compound 4] |  |  |  | hM4 IC50 (hM4): inactive; hM2 IC50 (hM2): inactive; hM3 IC50 (hM3): inactive
Cn1ccnc1NC(=O)C1CCN(S(=O)(=O)c2ccc3c(c2)CCO3)CC1 [compound 6] |  |  |  | hM5 IC50 (hM5): inactive
Cc1nc2cc(NC(=O)C3CCN(S(=O)(=O)c4ccc5c(c4)CCO5)CC3)ccc2s1 [compound 20] | 19^c % | 3.6 L/h/kg | 0.96 L/h/kg | 

More lines, main results first:

hM5 ACh Min (hM5) | Predicted CLhep (In vitro clearance [1]) | Predicted CLhep (In vitro clearance [2]) | Structure (SMILES) | also measured
inactive |  |  | O=C(Nc1ccc2occc2c1)C1CCN(S(=O)(=O)c2ccc3c(c2)CCO3)CC1 [28a] | hM5 IC50 (hM5): inactive
inactive |  |  | O=C(Nc1ccc2ncnn2c1)C1CCN(S(=O)(=O)c2ccc3c(c2)CCO3)CC1 [28b] | hM5 IC50 (hM5): inactive
inactive |  |  | O=C(Nc1ccc2nncn2c1)C1CCN(S(=O)(=O)c2ccc3c(c2)CCO3)CC1 [28c] | hM5 IC50 (hM5): inactive
inactive |  |  | O=C(Nc1cnc2sccc2c1)C1CCN(S(=O)(=O)c2ccc3c(c2)CCO3)CC1 [28d] | hM5 IC50 (hM5): inactive
inactive |  |  | O=C(Nc1ccc2nccnc2c1)C1CCN(S(=O)(=O)c2ccc3c(c2)CCO3)CC1 [28e] | hM5 IC50 (hM5): inactive
 | 3.84 L/h/kg | 1.02 L/h/kg | O=C(Nc1ccc2cccnc2c1)C1CCN(S(=O)(=O)c2ccc3c(c2)CCO3)CC1 [28f] | 
 | 3.84 L/h/kg | 1.08 L/h/kg | O=C(Nc1ccc2snnc2c1)C1CCN(S(=O)(=O)c2ccc3c(c2)CCO3)CC1 [28g] | 
 | 2.28 L/h/kg | 0.78 L/h/kg | O=C(Nc1ccc2scnc2c1)C1CCN(S(=O)(=O)c2ccc3ncsc3c2)CC1 [29a] | CLint scaled (In vitro clearance [1]; rat): 2.28 L/h/kg; CLint scaled (In vitro clearance [2]; human): 0.78 L/h/kg
 | 3.18 L/h/kg | 0.6 L/h/kg | O=C(Nc1ccc2scnc2c1)C1CCN(S(=O)(=O)c2ccc3ncccc3c2)CC1 [29b] | 
3^b % | 1.98 L/h/kg | 0.66 L/h/kg | O=C(Nc1ccc2scnc2c1)C1CCN(S(=O)(=O)c2ccc(Cl)nc2)CC1 [29c] | 
 | 1.62 L/h/kg | 0.24 L/h/kg | Cc1ccc(S(=O)(=O)N2CCC(C(=O)Nc3ccc4scnc4c3)CC2)cn1 [29d] | 
2^b % | 3.12 L/h/kg | 0.6 L/h/kg | O=C(Nc1ccc2scnc2c1)C1CCN(S(=O)(=O)c2cccnc2)CC1 [29e] | 
 | 1.68 L/h/kg |  | Cc1nn(C)cc1S(=O)(=O)N1CCC(C(=O)Nc2ccc3scnc3c2)CC1 [29f] | 

Source: publication PMC10939060 (Bioorganic & medicinal chemistry letters, 2022)
